# According to US20100249076A1, “PRODRUGS OF 9-AMINOMETHYL TETRACYCLINE COMPOUNDS” (priority 2003, published 2010):
# Like-named read-outs stand apart in the source and are kept apart here.
# What was measured:
# Type in all cases: in vivo
# [1] = test system: S. pneumoniae 157E; test: Oral efficacy (PD50) in mice with acute systemic infection by susceptible S. pneumoniae; details: Streptococcus pneumoniae, read-out: PD50, S. pneumoniae 157E
# Experimental: (§1) Relative to linezolid, the PD50 values for a number of the compounds were within an 2-fold range against the resistant organism. Compounds with PD50 values of less than 7 mg/kg/dose are indicated with “***.” Compounds with PD50 values of less than 14 mg/kg/dose but greater than 7 mg/kg/dose are indicated with “**.” Compounds with PD50 values of greater than 14 mg/kg/dose, but less than 21 mg/kg/dose are indicated with “*.” Compounds with PD50 values greater than 21 mg/kg/dose are indicated with “−”
# [2] = test system: S. pneumoniae 700905; test: Oral efficacy (PD50) in mice with acute systemic infection by resistant S. pneumoniae; details: Streptococcus pneumoniae, resistant S. pneumoniae 700905
# Experimental: as §1
# [3] = test system: S. pneumoniae 157E (tet^S); test: Oral efficacy screen, murine model of S. pneumoniae systemic infection (survival); details: Streptococcus pneumoniae, 1 h, read-out: % survival at 10 (po) mg/kg
# Experimental: The following example was used to assess the oral bioavailability of compounds of the invention in an oral efficacy screen in murine models of infection. The compounds were screened by administering a single 10 mg/kg oral dose to mice 1 hour after administration of a lethal intraperitoneal inoculum of S. pneumoniae 157E (tet^S).
# In Table 1 below, compounds with a survival rate of ≧80% are indicated with ‘***”; compounds with a survival rate of ≧60% are indicated with ‘**” and compounds with a survival rate of […] are indicated with ‘*’. Compounds with a survival rate of less than 20% are indicated with ‘−’.
# [4] = mice, oral, acute systemic infection, susceptible S. pneumoniae 157E
SMILES,"ED50 ([1]; 157E, po)",ED50 [2],responders at 10 mg/kg [3],"ED50 [1, 4]"
CN(C)c1cc(CN(CC(C)(C)C)C(=O)OCOC(=O)C(C)(C)C)c(O)c2c1C[C@H]1C[C@H]3[C@H](N(C)C)C(O)=C(C(N)=O)C(=O)[C@@]3(O)C(O)=C1C2=O [A],< 7 mg/kg,< 7 mg/kg,> 80%,
CCCC(=O)OCOC(=O)N(Cc1cc(N(C)C)c2c(c1O)C(=O)C1=C(O)[C@]3(O)C(=O)C(C(N)=O)=C(O)[C@@H](N(C)C)[C@@H]3C[C@@H]1C2)CC(C)(C)C [Q],,14 to 21 mg/kg,> 80%,
COc1ccc(C(=O)OCOC(=O)N(Cc2cc(N(C)C)c3c(c2O)C(=O)C2=C(O)[C@]4(O)C(=O)C(C(N)=O)=C(O)[C@@H](N(C)C)[C@@H]4C[C@@H]2C3)CC(C)(C)C)cc1 [G],7 to 14 mg/kg,,> 60%,
CN(C)c1cc(CN(CC(C)(C)C)C(=O)OCOC(=O)c2ccccc2)c(O)c2c1C[C@H]1C[C@H]3[C@H](N(C)C)C(O)=C(C(N)=O)C(=O)[C@@]3(O)C(O)=C1C2=O [D],< 7 mg/kg,,> 0%,
CN(C)c1cc(CN(CC(C)(C)C)C(=O)OCOC(=O)CC(C)(C)C)c(O)c2c1C[C@H]1C[C@H]3[C@H](N(C)C)C(O)=C(C(N)=O)C(=O)[C@@]3(O)C(O)=C1C2=O [H],< 7 mg/kg,7 to 14 mg/kg,> 80%,
CN(C)c1cc(CN(CC(C)(C)C)C(=O)OCOC(=O)c2c(F)cccc2F)c(O)c2c1C[C@H]1C[C@H]3[C@H](N(C)C)C(O)=C(C(N)=O)C(=O)[C@@]3(O)C(O)=C1C2=O [N],,14 to 21 mg/kg,> 80%,
COCCC(=O)OCOC(=O)N(Cc1cc(N(C)C)c2c(c1O)C(=O)C1=C(O)[C@]3(O)C(=O)C(C(N)=O)=C(O)[C@@H](N(C)C)[C@@H]3C[C@@H]1C2)CC(C)(C)C [K],< 7 mg/kg,14 to 21 mg/kg,> 80%,
CN(C)c1cc(CN(CC(C)(C)C)C(=O)OCOC(=O)Cc2ccccc2)c(O)c2c1C[C@H]1C[C@H]3[C@H](N(C)C)C(O)=C(C(N)=O)C(=O)[C@@]3(O)C(O)=C1C2=O [O],,7 to 14 mg/kg,> 60%,
COCCOCC(=O)OCOC(=O)N(Cc1cc(N(C)C)c2c(c1O)C(=O)C1=C(O)[C@]3(O)C(=O)C(C(C)=O)=C(O)[C@@H](N(C)C)[C@@H]3C[C@@H]1C2)CC(C)(C)C [L],,,> 60%,
CN(C)c1cc(CN(CC(C)(C)C)C(=O)OCOC(=O)c2ccc(C(F)(F)F)cc2)c(O)c2c1C[C@H]1C[C@H]3[C@H](N(C)C)C(O)=C(C(N)=O)C(=O)[C@@]3(O)C(O)=C1C2=O [M],,,> 80%,
CN(C)c1cc(CN(CC(C)(C)C)C(=O)OCOC(=O)CCc2ccccc2)c(O)c2c1C[C@H]1C[C@H]3[C@H](N(C)C)C(O)=C(C(N)=O)C(=O)[C@@]3(O)C(O)=C1C2=O [E],,,> 0%,
CC(OC(=O)N(Cc1cc(N(C)C)c2c(c1O)C(=O)C1=C(O)[C@]3(O)C(=O)C(C(N)=O)=C(O)[C@@H](N(C)C)[C@@H]3C[C@@H]1C2)CC(C)(C)C)OC(=O)C(C)(C)C (some centres unmarked) [I],,7 to 14 mg/kg,> 80%,
CN(C)c1cc(CN(CC(C)(C)C)C(=O)OCOC(=O)C2CCCCC2)c(O)c2c1C[C@H]1C[C@H]3[C@H](N(C)C)C(O)=C(C(N)=O)C(=O)[C@@]3(O)C(O)=C1C2=O [F],< 7 mg/kg,14 to 21 mg/kg,> 60%,
"CN(C)c1ccc(O)c2c1C[C@H]1C[C@H]3[C@H](N(C)C)C(O)=C(C(N)=O)C(=O)[C@@]3(O)C(O)=C1C2=O [Minocycline, reference compound]",,,,7 to 14 mg/kg
"CC[C@H]1OC(=O)[C@H](C)[C@@H](O[C@H]2C[C@@](C)(OC)[C@@H](O)[C@H](C)O2)[C@H](C)[C@@H](O[C@@H]2O[C@H](C)C[C@H](N(C)C)[C@H]2O)[C@](C)(O)C[C@@H](C)CN(C)[C@H](C)[C@@H](O)[C@]1(C)O [Azithromycin, reference compound]",,,,7 to 14 mg/kg
CCC(=O)OCOC(=O)N(Cc1cc(N(C)C)c2c(c1O)C(=O)C1=C(O)[C@]3(O)C(=O)C(C(N)=O)=C(O)[C@@H](N(C)C)[C@@H]3C[C@@H]1C2)CC(C)(C)C [P],,14 to 21 mg/kg,> 80%,
COCC(=O)OCOC(=O)N(Cc1cc(N(C)C)c2c(c1O)C(=O)C1=C(O)[C@]3(O)C(=O)C(C(N)=O)=C(O)[C@@H](N(C)C)[C@@H]3C[C@@H]1C2)CC(C)(C)C [J],,,> 0%,
"CC(=O)NC[C@H]1CN(c2ccc(N3CCOCC3)c(F)c2)C(=O)O1 [Linezolid, reference compound]",,7 to 14 mg/kg,,< 7 mg/kg
"C[C@H]1c2cccc(O)c2C(=O)C2=C(O)[C@]3(O)C(=O)C(C(N)=O)=C(O)[C@@H](N(C)C)[C@@H]3[C@@H](O)[C@@H]21 [Doxycycline, reference compound]",,,,< 7 mg/kg
CC(C)C(=O)OCOC(=O)N(Cc1cc(N(C)C)c2c(c1O)C(=O)C1=C(O)[C@]3(O)C(=O)C(C(N)=O)=C(O)[C@@H](N(C)C)[C@@H]3C[C@@H]1C2)CC(C)(C)C [R],,7 to 14 mg/kg,> 80%,
"CC1(C)S[C@@H]2[C@H](NC(=O)[C@H](N)c3ccccc3)C(=O)N2[C@H]1C(=O)O [Ampicillin, reference compound]",,,,14 to 21 mg/kg
CC(=O)OCOC(=O)N(Cc1cc(N(C)C)c2c(c1O)C(=O)C1=C(O)[C@]3(O)C(=O)C(C(N)=O)=C(O)[C@@H](N(C)C)[C@@H]3C[C@@H]1C2)CC(C)(C)C [B],7 to 14 mg/kg,7 to 14 mg/kg,> 80%,
